Assays:
M3 muscarinic receptor = biological target: T1, M3 muscarinic receptor (Rattus norvegicus, UniProt P08483); test: Radioligand binding assay, [3H]-N-methylscopolamine, rat submandibular gland membranes; conditions: [3H]-NMS binding, Ki by Cheng & Prusoff; for Ki: read-out: M3 pki
T1 construct: Submandibular glands and heart were isolated and placed in ice cold homogenising buffer; from tissue; host or cells: rat submandibular gland membrane homogenate
Description: (§1) Radioligand Binding Assays: • The affinity of test compounds for M2 and M3 muscarinic receptor subtypes was determined by [^3H]-N-methylscopolamine binding studies using rat heart and submandibular gland respectively as described by Moriya et al., (Life Sci, 1999, 64(25):2351-2358) with minor modifications. Membrane preparation: Submandibular glands and heart were isolated and placed in ice cold homogenising buffer (HEPES 20 mM, 10 mM EDTA, pH 7.4) immediately after sacrifice. The tissues were homogenised in 10 volumes of homogenising buffer and the homogenate was filtered through two layers of wet gauze and filtrate was centrifuged at 500 g for 10 min. The supernatant was subsequently centrifuged at 40,000 g for 20 min. The pellet thus obtained was resuspended in same volume of assay buffer (HEPES 20 mM, EDTA 5 mM, pH 7.4) and were stored at −70° C. until the time of assay. Ligand binding assay: The compounds were dissolved and diluted in DMSO. The membrane homogenates (150-250 μg protein) were incubated in 250 μl of assay buffer (HEPES 20 mM, pH 7.4) at 24-25° C. for 3 h. Non-specific binding was determined in the presence of 1 μM atropine. The incubation was terminated by vacuum filtration over GF/B fiber filters(Wallac). The filters were then washed with ice cold 50 mM Tris HCl buffer (pH 7.4). The filter mats were dried and bound radioactivity retained on filters was counted. The IC50 & Kd were estimated by using the non-linear curve fitting program using G Pad Prism software. The value of inhibition constant Ki was calculated from competitive binding studies by using Cheng & Prusoff equation (Biochem Pharmacol, 1973, 22: 3099-3108), Ki=IC50/(1+L/Kd), where L is the concentration of [^3H]NMS used in the particular experiment. pki is—[log Ki].

M2 muscarinic receptor = biological target: T2, M2 muscarinic receptor (Rattus norvegicus, UniProt P10980); test: Radioligand binding assay, [3H]-N-methylscopolamine, rat heart membranes; conditions: [3H]-NMS binding, Ki by Cheng & Prusoff; for Ki: read-out: M2 pki
T2 construct: Submandibular glands and heart were isolated and placed in ice cold homogenising buffer; from tissue; host or cells: rat heart membrane homogenate
T2 sequence (P10980 1-466): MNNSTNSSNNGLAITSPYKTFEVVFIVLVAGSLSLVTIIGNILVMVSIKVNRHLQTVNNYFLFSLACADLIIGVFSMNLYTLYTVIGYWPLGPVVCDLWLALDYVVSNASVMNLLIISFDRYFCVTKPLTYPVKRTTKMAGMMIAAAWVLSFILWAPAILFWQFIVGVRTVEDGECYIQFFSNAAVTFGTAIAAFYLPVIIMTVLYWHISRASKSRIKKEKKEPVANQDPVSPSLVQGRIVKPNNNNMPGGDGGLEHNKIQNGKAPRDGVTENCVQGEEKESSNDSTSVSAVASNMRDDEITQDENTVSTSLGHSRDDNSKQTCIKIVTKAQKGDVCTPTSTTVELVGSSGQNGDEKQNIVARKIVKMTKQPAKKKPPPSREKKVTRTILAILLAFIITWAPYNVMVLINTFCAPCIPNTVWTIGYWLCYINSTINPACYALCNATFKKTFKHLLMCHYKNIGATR
Description: as §1

T1 sequence (P08483 whole entry): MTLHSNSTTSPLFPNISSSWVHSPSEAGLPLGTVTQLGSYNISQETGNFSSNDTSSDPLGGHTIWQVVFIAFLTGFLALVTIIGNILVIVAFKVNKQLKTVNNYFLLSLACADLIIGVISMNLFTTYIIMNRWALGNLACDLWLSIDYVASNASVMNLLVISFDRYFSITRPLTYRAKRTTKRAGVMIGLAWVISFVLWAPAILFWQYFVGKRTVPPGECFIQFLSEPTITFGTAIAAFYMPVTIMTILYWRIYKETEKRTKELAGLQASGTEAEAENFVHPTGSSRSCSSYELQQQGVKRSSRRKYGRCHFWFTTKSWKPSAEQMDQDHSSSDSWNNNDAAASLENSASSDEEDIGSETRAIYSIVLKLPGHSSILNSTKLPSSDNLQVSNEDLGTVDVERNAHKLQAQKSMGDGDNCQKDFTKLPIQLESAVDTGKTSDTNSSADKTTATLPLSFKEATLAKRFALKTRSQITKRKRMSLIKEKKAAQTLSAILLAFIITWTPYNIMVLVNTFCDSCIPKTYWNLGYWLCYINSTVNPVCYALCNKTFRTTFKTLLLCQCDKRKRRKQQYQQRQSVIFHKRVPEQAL

Ki (M3 muscarinic receptor) [µM]	Ki (M2 muscarinic receptor) [µM]	melting point [°C]	M3 pki (M3 muscarinic receptor)	M2 pki (M2 muscarinic receptor)	Compound
> 1	> 1				Cc1c(-c2ccccc2)oc2c(C(=O)NCC34CC3CN(Cc3ccccc3)C4)cccc2c1=O (centres unmarked) [Compound No. 5, N-[3-benzyl-3-azabicyclo[3.1.0]hexyl-1-(aminomethyl)-yl]-3-methyl-4-oxo-2-phenyl-4H-1-benzopyran-8-carboxamide]
> 10	> 10	182 to 184			Cc1c(-c2ccccc2)oc2c(C(=O)N[C@H]3[C@@H]4CN(Cc5ccccc5)C[C@@H]43)cccc2c1=O [Compound No. 1, (1α,5α,6α)-6N-[3-benzyl-3-azabicyclo[3.1.0]hexyl]-3methyl-4-oxo-2-phenyl-4H-1-benzopyran-8-carboxamide]
			<6	<6	(1α,5α,6α)-N-[3-[4-methyl-3-pentenyl]-3-azabicylo[3.1.0]hexyl-6-(aminomethyl)-3-methyl-4-oxo-2-phenyl-4H-1-benzo-pyran-8-carboxamide [Compound No. 4]
> 10	> 10				Cc1c(-c2ccccc2)oc2c(C(=O)N[C@H]3[C@@H]4CN(Cc5ccc(C#N)cc5)C[C@@H]43)cccc2c1=O [Compound No. 2, (1α,5α,6α)-6N-[3-(4-cyanobenzyl)-3-azabicyclo[3.1.0]hexyl]-3-methyl-4-oxo-2-phenyl-4H-1-benzopyran-8-carboxamide]
			5.1	<5.3	Cc1c(-c2ccccc2)oc2c(C(=O)NCC3C4CN(Cc5ccccc5)CC34)cccc2c1=O (stereo not drawn) [Compound No. 3, (1α,5α,6α)-N-[3-benzyl-3-azabicyclo[3.1.0]hexyl-6-(aminomethyl)-yl]-3-methyl-4-oxo-2-phenyl-4H-1-benzopyran-8-carboxamide]

From patent publication US7501443B2, “Flavaxate derivatives as muscarinic receptor antagonists” (Ranbaxy Laboratories Limited, priority 2002, dated 2009)
